# Results: article PMC11510591, “In Vitro Evaluation of Pharmacokinetic Properties of Selected Dual COX-2 and 5-LOX Inhibitors” (Pharmaceuticals, 2024)
# “And” between values parts separate entries of the source, which are not always exact repeats. Equal entries are not always repeated. Marks after values point to notes of the source that are not given here.
# How the values were obtained:
# [1] = biological target: T1, human serum albumin (HSA) (Homo sapiens, UniProt P02768); assay: Differential pulse voltammetry (DPV), interaction with HSA; assay type: binding; conditions: compound 0.05 mmol/L, PBS pH 7.4, HSA 0.05–10 μmol/L; for fraction unbound at 0.05 mmol/L: human, human serum albumin solution in PBS, read-out: % Bound Drug (converted)
# T1 construct: purchased Sigma-Aldrich
# Description: The electrochemical oxidation of the tested compounds at a concentration of 0.05 mmol/L in PBS buffer pH 7.4 was investigated by differential pulse voltammetry (DPV). […] For all tested compounds, a preliminary study of the interaction with HSA was performed at a concentration of 0.05 mmol/L and different HSA concentrations (0.05–10 μmol/L) using DPV. […] It has been reported that the shift in the potential of an electroactive ligand is a suitable criterion to determine the mode of the macromolecule–ligand interaction. In this context, a positive shift in potential is an indication of hydrophobic interaction of investigated compounds with HSA [34]. The decrease in peak current could be due to the formation of a non-electroactive supramolecular compound by the drug–protein interaction, which reduces the concentration of free drug.
# The voltammetric measurements were carried out with the µAutolab analyzer (EcoChemie, Utrecht, The Netherlands). A three-electrode system with a GCE working electrode, an Ag/AgCl reference electrode, and a Pt-auxiliary electrode was used. Before each experiment, the GCE was manually polished with an aqueous slurry of Al2O3 powder (particle size of 0.05 μm) on a smooth polishing pad, sonicated in deionized water, and then treated in absolute ethanol. Phosphate buffer saline (PBS) pH 7.4 was used as the supporting electrolyte. The experiments were carried out with deaerated PBS buffer. A stock solution of HSA in PBS at a concentration of 0.1 mmol/L was used. […] The interaction between tested compounds and HSA was examined in PBS solution, using solutions of tested compounds in a concentration of 0.05 mmol/L and HSA solution with a concentration in the range of 0.05–10 μmol/L.
# The percentage of free compound (Equation (4)) was calculated from the ratio of the current intensity (IINT) for a given compound concentration (0.05 mmol/L) in the presence of albumin to the signal obtained at the same compound concentration only in the presence of the supporting electrolyte (PBS buffer) (IC).
# [2] = Stability in acidic medium (0.01 M HCl); assay type: physicochemical; conditions: for The Decrease in Peak Area (%): 0.01 M HCl pH 2, 2 h; for Peak Area, t: 0.01 M HCl pH 2, after 2 h; for Peak Area, t0: 0.01 M HCl pH 2, start of incubation
# Description: In order to test gastric stability, compounds were incubated in 0.01 M HCl (pH = 2) for 2 h. Moreover, 0.01 M HCl was chosen because this acid is naturally present in the stomach and simulates its pH (between 1 and 3), while incubation time (2 h) corresponds to the average retention of drugs in the stomach after an oral administration. Peak areas at the beginning (t0) and at the end of the incubation (t) and the decrease in peak areas between these two time points are presented in Table 5.
# Acidic medium was simulated by a 0.01 M HCl solution, which was prepared by diluting 0.1 M HCl with distilled water. Stock solutions of tested compounds (5 mM DMSO solutions) were diluted with the medium to obtain a concentration of 0.05 mM. Tested compounds were investigated immediately after preparation (t0) and after a defined incubation time (t) by injecting these solutions into the HPLC chromatograph in duplicates (the HPLC method used was the same as described in Section 3.3.1). The difference between peak areas at t0 and t time points and the eventual occurrence of additional chromatographic peaks after incubation were analyzed.
# [3] = system: CD-1 mouse liver microsomes; conditions: pH 7.4; for Peak Area, t0: 0 min
# Description: Microsomal stability (and thus susceptibility to metabolism) was tested using microsomes derived from CD-1 mouse liver. According to the applied protocol, both phases of metabolism were activated by the addition of cofactors NADPH and UDP-GlcUA. […] Stock solutions of all tested compounds (5 mM DMSO solutions) were diluted with 0.1 M potassium phosphate buffer pH 7.4 to obtain 0.1 mM solutions, which were further incubated according to the protocol. In order to activate both the 1st and 2nd phases of metabolism, NADPH and UDP-GlcUA were used as cofactors. Tested compounds were incubated at 37 °C for 30 min, and the incubation was quenched immediately after the addition of cofactors (t0) and after the defined incubation time (t) by mixing 100 µL of corresponding incubation mixtures with 200 µL of cold acetonitrile. All compounds were tested in duplicates, and their concentrations were determined using the HPLC-MS/MS method (Section 3.7.1).
# The HPLC-MS/MS analysis was performed on the UHPLC chromatograph ACELLA (Thermo Fisher Scientific Inc., Madison, WI, USA), coupled to a triple quadrupole mass spectrometer TSQ Quantum Access MAX (Thermo Fisher Scientific Inc., Madison, WI, USA) with a heated electrospray ionization (HESI) interface. The column used was Zorbax Extend C18 (150 mm × 4.6 mm, 5 µm; Agilent Technologies), which was thermostated at 25 °C. The mobile phase consisted of acetonitrile and 0.1% formic acid (60:40, v/v), with a flow rate of 500 µL/min. The injection volume was 10 µL.
# T1 sequence (P02768 25-609): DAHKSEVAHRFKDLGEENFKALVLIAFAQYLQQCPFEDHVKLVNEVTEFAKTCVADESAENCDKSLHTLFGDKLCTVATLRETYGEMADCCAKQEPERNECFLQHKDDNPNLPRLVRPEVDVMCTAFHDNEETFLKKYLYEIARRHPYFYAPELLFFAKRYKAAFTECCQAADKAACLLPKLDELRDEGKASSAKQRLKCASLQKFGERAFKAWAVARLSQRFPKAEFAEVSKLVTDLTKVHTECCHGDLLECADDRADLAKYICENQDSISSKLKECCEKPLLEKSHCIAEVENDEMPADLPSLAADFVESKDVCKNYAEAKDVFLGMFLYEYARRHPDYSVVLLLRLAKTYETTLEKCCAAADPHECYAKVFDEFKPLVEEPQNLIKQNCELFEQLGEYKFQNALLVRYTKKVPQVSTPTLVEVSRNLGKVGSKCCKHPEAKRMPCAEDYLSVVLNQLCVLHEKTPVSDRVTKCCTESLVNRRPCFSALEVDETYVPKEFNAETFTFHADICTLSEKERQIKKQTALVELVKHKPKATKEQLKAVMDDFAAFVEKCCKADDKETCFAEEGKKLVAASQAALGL
Compound,"ΔE, DPV peak potential shift after interaction with HSA [1] [mV]",fraction unbound at 0.05 mmol/L [1],The Decrease in Peak Area (%) [2],"Peak Area, t [2]","Peak Area, t0 [2]","Peak Area, t0 [3]","Peak Area, t ([3]; 30 min)",The Decrease in Peak Area (%) ([3]; 30 min)
COc1ccc2c(c1)c(CNC(=O)NO)c(C)n2C(=O)c1ccc(Cl)cc1 [Compound 1],34,0.267,0.07 (p = 0.2839) ^a %,8.27 ± 0.00,8.28 ± 0.01,131.5 ± 16.8 ×10^3,60.5 ± 6.4 ×10^3,–
CC(NC(=O)NO)c1ccc(-c2ccccc2)c(F)c1 (stereo not drawn) [Compound 2],30,0.198,0.34 (p = 0.4501) %,6.55 ± 0.07,6.57 ± 0.12,16.5 ± 3.1 ×10^3,9.6 ± 3.0 ×10^3,41.65 (p = 0.0034) %
O=C(NO)NCc1ccccc1Nc1c(Cl)cccc1Cl [Compound 3],29,0.198,2.33% and 2.33 (p = 0.0159) %,6.27 ± 0.10,6.42 ± 0.11,1033.6 ± 42.5 ×10^3,455.5 ± 8.9 ×10^3,–

# Results, then the compound that gave them:
"ΔE, DPV peak potential shift after interaction with HSA [1] [mV]",fraction unbound at 0.05 mmol/L [1],The Decrease in Peak Area (%) [2],"Peak Area, t [2]","Peak Area, t0 [2]","Peak Area, t0 [3]","Peak Area, t ([3]; 30 min)",The Decrease in Peak Area (%) ([3]; 30 min),Compound
7,0.292,1.63 (p = 0.073) %,10.83 ± 0.03,11.01 ± 0.02,60.0 ± 1.4 ×10^3,44.6 ± 1.9 ×10^3,–,CC(=O)N(O)C(C)c1ccc(CC(C)C)cc1 (stereo not drawn) [Compound 11]
13,0.296,0.24 (p = 0.4399) %,48.54 ± 0.39,48.66 ± 0.49,43.9 ± 3.2 ×10^3,18.2 ± 0.1 ×10^3,–,COc1ccc2cc(C(C)N(O)C(C)=O)ccc2c1 (stereo not drawn) [Compound 12]
